Reference: PMC7272617 (Scientific Reports, 2020)
Converted amounts (≈) assume the structure as drawn. “And” between values parts separate entries of the source, which are not always exact repeats. Equal values may be shown once. Where a SMILES comes first, the peptide text is derived from it.

Columns and labels:
[1] = system: MDR P. aeruginosa isolates; assay: MIC against all tested MDR P. aeruginosa isolates; type: cell-based, Pseudomonas aeruginosa; details: times higher than ciprofloxacin
[2] = system: P. aeruginosa ATCC 27853; assay: Membrane permeability (PI) and depolarization (BOX), flow cytometry; type: cell-based, Pseudomonas aeruginosa; details: for permeabilized and depolarized cells: 0.5 × MIC; for cell population BOX+PI- / cell population BOX-PI+ / cell population BOX-PI- / permeabilized and depolarized cells (BOX+PI+): 1 × MIC; for permeabilized and depolarized cells (BOX+PI+): 37 °C, triplicate
Description: Their outer and inner membranes provide important protection for Gram-negative bacteria. To assess membrane permeability and depolarization induced by PA-13, the DNA intercalating dyes propidium iodide (PI) and bis-(1,3-dibutylbarbituric acid) trimethine oxonol (BOX) were used as previously described. The fluorescence conferred by these dyes is generally associated with the loss of membrane integrity and potential, respectively.
Briefly, P. aeruginosa ATCC 27853 was cultured to mid-logarithmic phase and harvested by centrifugation at 2,000 × g for 5 min. The bacterial cells were washed thrice with PBS and diluted to 10^7 CFU/ml in 50 ml of PBS. […] Bacterial pellets were harvested and washed with PBS by centrifugation at 10,000 × g for 10 min. […] Untreated bacterial cells (no peptide) served as a negative control, whereas bacterial cells treated with melittin served as a positive control. Data was recorded using a flow cytometer (CytoFlex, Beckman Coulter) at a laser excitation wavelength of 488 nm. Forward scatter (FS), side scatter (SS), green fluorescence (530/30 nm) from BOX and red fluorescence (585/42 nm) emitted by PI were collected using logarithmic scales. 25,000 cells, defined according to their scatter parameters, were counted in each sample. The experiments were performed in triplicate and the data was analyzed using Kaluza software.

[3] = system: Vibrio cholera O1 Inaba DMST 16261; details: MHB, 37 °C, 24 h
[4] = system: Acinetobacter baumannii MT strain; details: MT strain, 24 h
[5] = system: Staphylococcus epidermidis ATCC 12228; details: ATCC 12228, 24 h
[6] = system: Listeria monocytogenes 10403 s; details: 10403 s, 24 h
[7] = system: MDR P. aeruginosa clinical isolate No.1
[8] = system: MDR P. aeruginosa clinical isolate No.2; details: MDR clinical isolate No.2, 24 h
[9] = system: MDR P. aeruginosa clinical isolate No.4; details: MDR clinical isolate No.4, 24 h
[10] = system: MDR P. aeruginosa clinical isolate No.5; details: MDR clinical isolate No.5, 24 h
[11] = system: MDR P. aeruginosa clinical isolate No.13; details: MDR clinical isolate No.13, 24 h
[12] = system: L929 mouse fibroblast cells; assay: Cytotoxicity, MTT viability assay; details: 3.91 µg/ml, 24 h

**Q.** Which results are given for `CC[C@H](C)[C@H](NC(=O)[C@H](CCCNC(=N)N)NC(=O)[C@H](CCCCN)NC(=O)[C@H](C)NC(=O)[C@@H](NC(=O)[C@@H](N)CCCCN)[C@@H](C)CC)C(=O)N[C@@H](Cc1c[nH]c2ccccc12)C(=O)N[C@@H](CCCCN)C(=O)N[C@H](C(=O)N[C@@H](CC(C)C)C(=O)N[C@@H](CCCNC(=N)N)C(=O)N[C@@H](CCCNC(=N)N)C(=O)N[C@@H](CCCNC(=N)N)C(N)=O)[C@@H](C)CC` [PA-13] (H-KIAKRIWKILRRR-NH2; N-terminus assumed)?
**A.** antimicrobial activity relative to ciprofloxacin [1]: 8-64 times; permeabilized and depolarized cells ([2]; 15 min): 72.75 ± 1.08%; permeabilized and depolarized cells ([2]; 30 min): 75.30 ± 2.68%; permeabilized and depolarized cells ([2]; 60 min): 81.66 ± 3.35%; cell population BOX+PI- ([2]; 15 min): 3.55%; cell population BOX-PI+ ([2]; 15 min): 7.74%; cell population BOX-PI- ([2]; 15 min): 0.68%; permeabilized and depolarized cells (BOX+PI+) ([2]; 15 min): 88.03 ± 3.02% and 88.03%; cell population BOX+PI- ([2]; 30 min): 5.74%; cell population BOX-PI+ ([2]; 30 min): 3.61%; cell population BOX-PI- ([2]; 30 min): 0.96%; permeabilized and depolarized cells (BOX+PI+) ([2]; 30 min): 89.69 ± 5.25% and 89.69%; cell population BOX+PI- ([2]; 60 min): 6.25%; cell population BOX-PI+ ([2]; 60 min): 1.05%; cell population BOX-PI- ([2]; 60 min): 0.62%; permeabilized and depolarized cells (BOX+PI+) ([2]; 60 min): 92.07 ± 5.15% and 92.07%; MIC [3]: 31.25 µg/mL (≈ 18 µM); MIC [4]: 7.81 µg/mL (≈ 4.5 µM); MIC [5]: 3.91 µg/mL (≈ 2.25 µM); MIC [6]: 3.91 µg/mL (≈ 2.25 µM); MIC [7]: 3.91 µg/mL (≈ 2.25 µM); MIC [8]: 7.81 µg/mL (≈ 4.5 µM); MIC [9]: 7.81 µg/mL (≈ 4.5 µM); MIC [10]: 7.81 µg/mL (≈ 4.5 µM); MIC [11]: 15.63 µg/mL (≈ 9 µM); L929 cell survival at the MIC [12]: up to 90%
